Experimental data as given in US9040691B2, “Hydroxymethylaryl-substituted pyrrolotriazines as ALK1 inhibitors” (BAYER INTELLECTUAL PROPERTY GMBH, priority 2011, dated 2015).

Assays:
[1] = tested on: laser-induced choroidal neovascularisation; assay: Systemic efficacy in the laser-induced choroidal neovascularization (CNV) model; type: in vivo, rat; details: Brown-Norway rats, i.p. once daily 50 mg/kg days 0-1 then 20 mg/kg
Experimental: B-3. Systemic Efficacy in the Laser-Induced Choroidal Neovascularization (CNV) Model
For this purpose, 16 pigmented Brown-Norway rats with no visible sign of ocular defects were selected and randomly divided into two groups of eight animals each. On day 0, the animals were anaesthetized by an intraperitoneal injection (15 mg/kg xylazine and 80 mg/kg ketamine). After instillation of one drop of 0.5% tropicamide to dilate the pupils, choroidal neovascularisation was induced by executing six 75 μm-sized choroidal burns around the optic disc of the right eyes using a 532 nm argon laser photocoagulation at 150 mW for 100 ms. […] The body weight of all animals was recorded before the start and once daily during the study.
(§1) An angiography was performed on day 21 using Heidelberg's Retinal Angiograph (HRA). After anaesthesia and pupillary dilation, 10% sodium fluorescein dye was injected subcutaneously, and images were recorded 10 min after dye injection. The vascular leakage of the fluorescein on the angiograms was evaluated by two examiners in a masked fashion and scored with 0 (no leakage) to 3 (strongly stained).
After euthanasia on day 23, the eyes were harvested and fixed in 4% paraformaldehyde solution for 1 hour at room temperature. […] The flat-mounted preparations were examined under a fluorescence microscope (Apotom) at 488 nm excitation wavelength. […]

[2] = tested on: laser-induced choroidal neovascularisation; assay: Topical efficacy in the laser-induced choroidal neovascularization (CNV) model; type: in vivo, rat; details: Brown-Norway rats, eye drops 10 μl of 20 mg/ml twice daily; for vascular leakage [HRA score]: angiography day 21, score 0-3; for choroidal neovascularisation lesion size: day 23
Experimental: B-4. Topical Efficacy in the Laser-Induced Choroidal Neovascularization (CNV) Model
For this purpose, 65 pigmented Brown-Norway rats with no visible sign of ocular defects were selected and randomly assigned to six different groups (for n-numbers, see table below). On day 0, the animals were anaesthetized by an intraperitoneal injection (15 mg/kg xylazine and 80 mg/kg ketamine). After instillation of one drop of 0.5% tropicamide to dilate the pupils, choroidal neovascularisation was induced by burning six holes into the retina (disruption of Bruch's membrane) of one eye per animal using a 532 nm argon laser (lesion size: 50 μm; laser intensity: 150 mW; stimulus duration: 100 ms). Test compounds and vehicle controls were topically administered twice daily by instilling respective eye drops into the affected eye. The test compounds were dosed as follows: 10 μl of an eye drop formulation containing 20 mg/ml of the respective test compound suspended either in 100% liquid paraffin or in an aqueous vehicle (HPMC 15 cP 3.5%, polysorbate 80 0.5%, NaCl 0.9% in water) were applied to the affected eye twice daily at a 10 to 14 hour interval during the complete observation period of 23 days. Control animals received the respective vehicle (100% liquid paraffin or aqueous vehicle) topically twice daily. The body weight of all animals was recorded before the start and once daily during the study.
as §1, with “a fluorescence fundus camera (Kowe). Here, after” for “Heidelberg's Retinal Angiograph (HRA). After”, “recorded 2 and” for “recorded”, “three different” for “two”, “who were blinded for group allocation (test compound versus vehicle),” for “in a masked fashion”
On day 23, animals were sacrificed, and eyes were harvested and fixed in 4% paraformaldehyde solution for 1 hour at room temperature. After washing, the retina was carefully peeled, washed, blocked and stained with a FITC-isolectine B4 antibody in order to visualize the vasculature. Then, the sclera-choroids were flat-mounted and examined under a fluorescence microscope (Keyence Biozero) at 488 nm excitation wavelength. The area (in μm^2) of choroidal neovascularization was measured using ImageTool software.

SMILES	vascular leakage [angiography score] ([1]; angiography day 21, score 0-3)	choroidal neovascularisation lesion volume ([1]; day 23)	vascular leakage [HRA score] ([2]; aqueous vehicle)	choroidal neovascularisation lesion size ([2]; aqueous vehicle)	vascular leakage [HRA score] ([2]; paraffin vehicle)	choroidal neovascularisation lesion size ([2]; paraffin vehicle)
Nc1ncnn2c([C@@H]3CCCNC3)cc(-c3cc(F)c(CO)c(F)c3)c12 [Example 11, (4-{4-Amino-7-[(3R)-piperidin-3-yl]pyrrolo[2,1-f][1,2,4]triazin-5-yl}-2,6-difluorophenyl)methanol]	0.68 ± 0.35 angiography score	3.48 ± 0.40 μm^3 × 100 000	1.66 ± 0.29 HRA score	5.50 ± 1.38 μm^2 × 10 000	1.41 ± 0.29 HRA score	6.45 ± 1.63 μm^2 × 10 000
Nc1ncnn2c1c(-c1cc(F)c(CO)c(F)c1)cc2[C@H]1CC[C@H](O)CC1 [Example 7, trans-4-[4-Amino-5-[3,5-difluoro-4-(hydroxymethyl)phenyl]pyrrolo[2,1-f][1,2,4]triazin-7-yl]-cyclohexanol]			1.49 ± 0.24 HRA score	6.14 ± 1.60 μm^2 × 10 000	1.52 ± 0.21 HRA score	6.21 ± 0.99 μm^2 × 10 000
